Measured values taken from ChEMBL document CHEMBL2375302, “Synthesis, antimicrobial, antiquorum-sensing, antitumor and cytotoxic activities of new series of fused [1,3,4]thiadiazoles” (Eur J Med Chem, 2013).

Experiments:
A549 = assay: Growth inhibition of human A549 cells at 10 uM after 48 hrs by coulter counter analysis relative to control; assay type: functional; settings: A549, 48 h, read-out: GI
SNB-19 = assay: Growth inhibition of human SNB19 cells at 10 uM after 48 hrs by coulter counter analysis relative to control; assay type: functional; settings: SNB-19, 48 h, read-out: GI
SK-OV-3 = assay: Growth inhibition of human SKOV3 cells at 10 uM after 48 hrs by coulter counter analysis relative to control; assay type: functional; settings: SK-OV-3, 48 h, read-out: GI
RXF 393 = assay: Growth inhibition of human RXF393 cells at 10 uM after 48 hrs by coulter counter analysis relative to control; assay type: functional; settings: RXF 393, 48 h, read-out: GI
MDA-MB-231 = assay: Growth inhibition of human MDA-MB-231 cells at 10 uM after 48 hrs by coulter counter analysis relative to control; assay type: functional; settings: MDA-MB-231, 48 h, read-out: GI
SF-539 = assay: Growth inhibition of human SF539 cells at 10 uM after 48 hrs by coulter counter analysis relative to control; assay type: functional; settings: SF-539, 48 h, read-out: GI
Aspergillus fumigatus = assay: Antifungal activity against Aspergillus fumigatus Af293 at 5 mg/mL after 48 hrs; assay type: functional; settings: Af293, 48 h, read-out: DIZ
SR = assay: Growth inhibition of human SR cells at 10 uM after 48 hrs by coulter counter analysis relative to control; assay type: functional; settings: read-out: GI
PC-3 = assay: Growth inhibition of human PC3 cells at 10 uM after 48 hrs by coulter counter analysis relative to control; assay type: functional; settings: PC-3, 48 h, read-out: GI
KM12 = assay: Growth inhibition of human KM12 cells at 10 uM after 48 hrs by coulter counter analysis relative to control; assay type: functional; settings: KM12, 48 h, read-out: GI
RPMI-8226 = assay: Growth inhibition of human RPMI8226 cells at 10 uM after 48 hrs by coulter counter analysis relative to control; assay type: functional; settings: RPMI-8226, 48 h, read-out: GI
NCI-H226 = assay: Growth inhibition of human NCI-H226 cells at 10 uM after 48 hrs by coulter counter analysis relative to control; assay type: functional; settings: NCI-H226, 48 h, read-out: GI
786-0 = assay: Growth inhibition of human 786-0 cells at 10 uM after 48 hrs by coulter counter analysis relative to control; assay type: functional; settings: 786-0, 48 h, read-out: GI
MCF7 = assay: Growth inhibition of human MCF7 cells at 10 uM after 48 hrs by coulter counter analysis relative to control; assay type: functional; settings: MCF7, 48 h, read-out: GI
Staphylococcus aureus = assay: Antibacterial activity against Staphylococcus aureus at 5 mg/mL after 24 hrs; assay type: functional; settings: read-out: DIZ
[1] = Growth inhibition of human EKVX cells at 10 uM after 48 hrs by coulter counter analysis relative to control; assay type: functional; settings: read-out: GI
Aspergillus flavus = assay: Antifungal activity against Aspergillus flavus 3372 at 5 mg/mL after 48 hrs; assay type: functional; settings: Aspergillus flavus, 3372, 48 h; read-out: DIZ
Candida albicans = assay: Antifungal activity against Candida albicans at 5 mg/mL after 48 hrs; assay type: functional; settings: read-out: DIZ
TK-10 = assay: Growth inhibition of human TK10 cells at 10 uM after 48 hrs by coulter counter analysis relative to control; assay type: functional; settings: TK-10, 48 h, read-out: GI
UO-31 = assay: Growth inhibition of human UO31 cells at 10 uM after 48 hrs by coulter counter analysis relative to control; assay type: functional; settings: UO-31, 48 h, read-out: GI
HOP-62 = assay: Growth inhibition of human HOP62 cells at 10 uM after 48 hrs by coulter counter analysis relative to control; assay type: functional; settings: HOP-62, 48 h, read-out: GI
[2] = test system: Chromobacterium violaceum; assay: Antiquorum-sensing activity against Chromobacterium violaceum ATCC 12472 after 48 hrs; assay type: functional
SNB-75 = assay: Growth inhibition of human SNB75 cells at 10 uM after 48 hrs by coulter counter analysis relative to control; assay type: functional; settings: SNB-75, 48 h, read-out: GI
SK-MEL-28 = assay: Growth inhibition of human SK-MEL-28 cells at 10 uM after 48 hrs by coulter counter analysis relative to control; assay type: functional; settings: SK-MEL-28, 48 h, read-out: GI
[3] = Growth inhibition of human HCC2998 cells at 10 uM after 48 hrs by coulter counter analysis relative to control; assay type: functional; settings: HCC 2998, 48 h, read-out: GI
[4] = Toxicity against brine shrimp larvae assessed as mortality at 100 ug/mL after 24 hrs by binocular microscopic analysis relative to control; assay type: organism-based; settings: artemia salina, in vivo
NCI-H522 = assay: Growth inhibition of human NCI-H522 cells at 10 uM after 48 hrs by coulter counter analysis relative to control; assay type: functional; settings: NCI-H522, 48 h, read-out: GI
OVCAR-5 = assay: Growth inhibition of human OVCAR5 cells at 10 uM after 48 hrs by coulter counter analysis relative to control; assay type: functional; settings: OVCAR-5, 48 h, read-out: GI
HT-29 = assay: Growth inhibition of human HT-29 cells at 10 uM after 48 hrs by coulter counter analysis relative to control; assay type: functional; settings: HT-29, 48 h, read-out: GI
HCT-116 = assay: Growth inhibition of human HCT116 cells at 10 uM after 48 hrs by coulter counter analysis relative to control; assay type: functional; settings: HCT-116, 48 h, read-out: GI
MOLT-4 = assay: Growth inhibition of human MOLT4 cells at 10 uM after 48 hrs by coulter counter analysis relative to control; assay type: functional; settings: MOLT-4, 48 h, read-out: GI

| SMILES | inhibition of growth at 10 µM (A549) [%] | inhibition of growth at 10 µM (SNB-19) [%] | inhibition of growth at 10 µM (SK-OV-3) [%] | inhibition of growth at 10 µM (RXF 393) [%] | inhibition of growth at 10 µM (MDA-MB-231) [%] | inhibition of growth at 10 µM (SF-539) [%] | zone of inhibition at 5000 µg/mL (Aspergillus fumigatus) [mm] | inhibition of growth at 10 µM (SR) [%] | inhibition of growth at 10 µM (PC-3) [%] | inhibition of growth at 10 µM (KM12) [%] | inhibition of growth at 10 µM (RPMI-8226) [%] | inhibition of growth at 10 µM (NCI-H226) [%] | inhibition of growth at 10 µM (786-0) [%] | inhibition of growth at 10 µM (MCF7) [%] | zone of inhibition at 5000 µg/mL (Staphylococcus aureus) [mm] | inhibition of growth at 10 µM [1] [%] | zone of inhibition at 5000 µg/mL (Aspergillus flavus) [mm] | zone of inhibition at 5000 µg/mL (Candida albicans) [mm] | inhibition of growth at 10 µM (TK-10) [%] | inhibition of growth at 10 µM (UO-31) [%] | other results |
| --- | --- | --- | --- | --- | --- | --- | --- | --- | --- | --- | --- | --- | --- | --- | --- | --- | --- | --- | --- | --- | --- |
| CCOC(=O)C1C(=O)N=C2SC(S(N)(=O)=O)=NN2C1c1ccc(N(C)C)cc1 (stereo not drawn) | < 10 | < 10 | < 10 | < 10 | 34.6 | < 10 | 4 | 10.3 | 11.4 | < 10 | < 10 | < 10 | < 10 | 10.2 | 5 | 12.2 | < 2 | 10 | < 10 | 14.7 | inhibition of growth at 10 µM (HOP-62): < 10%; diameter of the inhibition zone (DIZ) [2]: <2 mm; inhibition of growth at 10 µM (SNB-75): 10.1%; inhibition of growth at 10 µM (SK-MEL-28): < 10%; inhibition of growth at 10 µM [3]: < 10%; mortality at 24 h, 100 ug/mL [4]: 83.3%; inhibition of growth at 10 µM (NCI-H522): 19.3%; inhibition of growth at 10 µM (OVCAR-5): < 10%; inhibition of growth at 10 µM (HT-29): < 10%; inhibition of growth at 10 µM (HCT-116): < 10%; inhibition of growth at 10 µM (MOLT-4): < 10% |
| N#Cc1cnc2sc(S(N)(=O)=O)nn2c1=O | < 10 | < 10 | < 10 | < 10 | < 10 | < 10 | < 2 | < 10 | < 10 | < 10 | < 10 | < 10 | < 10 | < 10 | 18 | < 10 | < 2 | 4 | < 10 | 10.5 | inhibition of growth at 10 µM (HOP-62): < 10%; diameter of the inhibition zone (DIZ) [2]: 10 mm; inhibition of growth at 10 µM (SNB-75): 10.3%; inhibition of growth at 10 µM (SK-MEL-28): < 10%; inhibition of growth at 10 µM [3]: < 10%; mortality at 24 h, 100 ug/mL [4]: 70%; inhibition of growth at 10 µM (NCI-H522): < 10%; inhibition of growth at 10 µM (OVCAR-5): < 10%; inhibition of growth at 10 µM (HT-29): < 10%; inhibition of growth at 10 µM (HCT-116): < 10%; inhibition of growth at 10 µM (MOLT-4): < 10% |
| N#Cc1cnc2sc(S(N)(=O)=O)nn2c1=N | < 10 | < 10 | < 10 | < 10 | 12 | < 10 | < 2 | < 10 | < 10 | < 10 | < 10 | < 10 | < 10 | < 10 | < 2 | < 10 | < 2 | < 2 | < 10 | < 10 | inhibition of growth at 10 µM (HOP-62): 10.7%; diameter of the inhibition zone (DIZ) [2]: 11 mm; inhibition of growth at 10 µM (SNB-75): < 10%; inhibition of growth at 10 µM (SK-MEL-28): < 10%; inhibition of growth at 10 µM [3]: < 10%; mortality at 24 h, 100 ug/mL [4]: 80%; inhibition of growth at 10 µM (NCI-H522): < 10%; inhibition of growth at 10 µM (OVCAR-5): < 10%; inhibition of growth at 10 µM (HT-29): < 10%; inhibition of growth at 10 µM (HCT-116): < 10%; inhibition of growth at 10 µM (MOLT-4): < 10% |
